According to patent US20030225081A1, “Pyridazinones and triazinones and medicinal use thereof” (priority 2000, published 2003):
pIC50: −log10 of the molar value.

System: AMPA receptor
Assay: Suppressing action to calcium influx into nerve cells induced by AMPA
Assay type: cell-based
Settings: Fura2-AM, stimulation with 2 μM AMPA, primary culture of rat embryo cerebral cortex nerve cells, 1 μM MK-801
Text: Suppressing Action to Calcium Influx into Nerve Cells Induced by AMPA
The suppressing action of the compounds of the present invention to calcium influx into nerve cells induced by AMPA was investigated using the primary culture system of nerve cells of cerebral cortex of embryo of rat.
Cerebral cortex was cut out from the brain of rat of gestational 18 days and treated with trypsin and DNase to disperse the cells. The cells were flown by MEM containing 10% of serum, sown in a culture bottle and astrocytes were proliferated. The astrocytes were re-dispersed by trypsin and sown in a 96-well plate. After incubation for one week, it was confirmed that the astrocytes covered all over the bottom and then the nerve cells of cerebral cortex which was dispersed by the above method were sown thereupon. After incubation for 24 hours, the medium was changed, the incubation was carried out for one week and, after that, the medium was changed to that containing 1 μM of MK-801. Nerve cells which were incubated for not shorter than 8 to 10 days were used.
Calcium influx into the cells was measured using Fura2-AM which was a calcium-sensitive fluorescent dye. It was treated in a medium containing Fura2-AM for 1 hour, incorporated into the cells, exchanged to a Tyrode solution containing 1 μM MK-801 and stimulation was carried out using 2 μM AMPA. Change in the amount of calcium flown into the cells were measured as the change in the fluorescent intensity at the exciting wave length of 340/380 nm. […] As the control compound, GYKI52466 (Le Peillet, et al., Brain Res., 571, 115, 1992) was used.

Compound	pIC50
CN(C)CCOc1ccccc1C1=NN(c2ccccc2Br)C(=O)N(c2ccccc2)C1 [Example 91, 2-(2-Bromophenyl)-6-(2-dimethylaminoethoxyphenyl)-4-phenyl-4,5-dihydro-1,2,4-triazin-3 (2H)-one]	6.52
O=C1N(c2ccccn2)CC(c2ccccn2)=NN1c1ccccc1Br [Example 118, 2-(2-Bromophenyl)-6-(2-pyridyl)-4-(2-pyridyl)-4,5-dihydro-1,2,4-triazin-3 (2H)-one]	7.52
O=C1N(c2cccc([N+](=O)[O-])c2)CC(c2ccccn2)=NN1c1ccccc1Br [Example 121, 2-(2-Bromophenyl)-4-(3-nitrophenyl)-6-(2-pyridyl)-4,5-dihydro-1,2,4-triazin-3 (2H)-one]	6.40
O=c1c(-c2ccccc2)cc(-c2ccccn2)nn1-c1cccnc1 [Example 74, 2-(3-Pyridyl)-4-phenyl-6-(2-pyridyl)-3 (2H)-pyridazinone]	6.05
COc1ccccc1C1=NN(c2ccccc2)C(=O)N(c2ccccc2Br)C1 [Example 115, 4-(2-Bromophenyl)-6-(2-methoxyphenyl)-2-phenyl-4,5-dihydro-1,2,4-triazin-3 (2H)-one]	5.14
O=C1N(c2ccccc2Br)CC(c2ccccc2)=NN1c1ccccc1 [Example 113, 4-(2-Bromophenyl)-2,6-diphenyl-4,5-dihydro-1,2,4-triazin-3 (2H)-one]	5.15
N#Cc1ccccc1N1N=C2c3ccccc3OCC2C(c2cccnc2)C1=O (stereo not shown) [Example 49, 2-(2-Cyanophenyl)-4-(3-pyridyl)-2,3,4,4a-tetrahydro-5H-(1) benzopyrano[4,3-c]pyridazin-3-one]	7.15
COc1ccccc1C1=NN(c2ccccc2Br)C(=O)N(c2ccccn2)C1 [Example 92, 2-(2-Bromophenyl)-6-(2-methoxyphenyl)-4-(2-pyridyl)-4,5-dihydro-1,2,4-triazin-3 (2H)-one]	7.00
O=C(NCCN1CCOCC1)c1cc(-c2ccccc2)nn(-c2ccccc2Cl)c1=O [Example 62, 2-(2-Chlorophenyl)-4-(4-morpholinoethylaminocarbonyl)-6-phenyl-3 (2H)-pyridazinone]	5.40
Cc1cccc(N2CC(c3ccccn3)=NN(c3ccccc3Br)C2=O)c1 [Example 124, 2-(2-Bromophenyl)-4-(3-tolyl)-6-(2-pyridyl)-4,5-dihydro-1,2,4-triazin-3 (2H)-one]	6.70
O=C1C(c2cccc(O)c2)CC(c2ccccn2)=NN1c1ccccc1Br (stereo not shown) [Example 2, 2-(2-Bromophenyl)-4-(3-hydroxyphenyl)-6-(2-pyridyl)-4,5-dihydro-3 (2H)-pyridazinone]	7.00
O=C1C(c2ccccc2OS(=O)(=O)C(F)(F)F)CC(c2ccccn2)=NN1c1ccccc1 (stereo not shown) [Example 38, 2-Phenyl-6-(2-pyridyl)-4-(2-trifluoromethylsulfonyloxyphenyl)-4,5-dihydro-3 (2H)-pyridazinone]	6.40
O=c1c(-c2ccccc2)cc(-c2ncccn2)nn1-c1cccnc1 [Example 75, 2-(3-Pyridyl)-4-phenyl-6-(2-pyrimidinyl)-3 (2H)-pyridazinone]	6.15
O=C1C(C(O)c2ccccn2)CC(c2ccccc2)=NN1c1ccccc1 (stereo not shown) [Example 11, 2,6-Diphenyl-4-(a-hydroxy-2-picolyl)-4,5-dihydro-3 (2H)-pyridazinone]	5.00
O=c1c(-c2ccccc2Br)cc(-c2ccccn2)nn1-c1ccccc1 [Example 60, 4-(2-Bromophenyl)-2-phenyl-6-(2-pyridyl)-3 (2H)-pyridazinone]	6.70
O=c1c(-c2cccc(OCc3ccccn3)c2)cc(-c2ccccn2)nn1-c1ccccc1Br [Example 37, 2-(2-Bromophenyl)-4-[3-(2-picolyloxyphenyl)]-6-(2-pyridyl)-3 (2H)-pyridazinone]	7.00
COc1ccccc1C1CC(c2cccnc2)=NN(c2ccccc2Br)C1=O (stereo not shown) [Example 24, 2-(2-Bromophenyl)-4-(2-methoxyphenyl)-6-(3-pyridyl)-4,5-dihydro-3 (2H)-pyridazinone]	7.22
N#Cc1ccccc1N1N=C(c2ccccn2)CN(c2cccc([N+](=O)[O-])c2)C1=O [Example 127, 2-(2-Cyanophenyl)-4-(3-nitrophenyl)-6-(2-pyridyl)-4,5-dihydro-1,2,4-triazin-3 (2H)-one]	6.40
O=C1N(c2ccccc2)CC(c2ncccn2)=NN1c1ccccc1Cl [Example 129, 2-(2-Chlorophenyl)-4-phenyl-6-(2-pyrimidinyl)-4,5-dihydro-1,2,4-triazin-3 (2H)-one.]	5.52
COc1ccccc1N1CC(c2ccccn2)=NN(c2ccccc2Br)C1=O [Example 85, 2-(2-Bromophenyl)-4-(2-methoxyphenyl)-6-(2-pyridyl)-4,5-dihydro-1,2,4-triazin-3 (2H)-one]	6.70

Compound	pIC50
N#Cc1ccccc1N1N=C2c3cc(F)ccc3OCC2C(c2ccccc2)C1=O (stereo not shown) [Example 48, 2-(2-Cyanophenyl)-9-fluoro-4-phenyl-2,3,4,4a-tetrahydro-5H-(1)benzopyrano[4,3-c]pyridazin-3-one]	7.00
O=C1C(c2ccccc2)CC(c2ccccn2)=NN1c1ccccc1Br (stereo not shown) [Example 19, 2-(2-Bromophenyl)-4-phenyl-6-(2-pyridyl)-4,5-dihydro-3 (2H)-pyridazinone]	7.22
O=c1c(-c2cccnc2)c2c(nn1-c1ccccc1Br)-c1ccccc1OC2 [Example 57, 2-(2-Bromophenyl)-4-(3-pyridyl)-2,3-dihydro-5H-(1)benzopyrano[4,3-c]pyridazine-3-one]	6.70
O=C1N(c2cccnc2)CC(c2ccccn2)=NN1c1ccccc1 [Example 109, 2-Phenyl-6-(2-pyridyl)-4-(3-pyridyl)-4,5-dihydro-1,2,4-triazin-3 (2H)-one]	6.52
COc1ccccc1C1CC(c2ccccn2)=NN(c2ccccn2)C1=O (stereo not shown) [Example 22, 4-(2-Methoxyphenyl)-2-(2-pyridyl)-6-(2-pyridyl)-4,5-dihydro-3 (2H)-pyridazinone]	5.57
COc1ccccc1-c1cc(-c2ccccn2)nn(-c2ccccc2C#N)c1=O [Example 40, 2-(2-Cyanophenyl)-4-(2-methoxyphenyl)-6-(2-pyridyl)-3 (2H)-pyridazinone]	7.00
O=c1c(-c2cccnc2)cc(-c2ccccn2)nn1-c1ccccc1Br [Example 61, 2-(2-Bromophenyl)-4-(3-pyridyl)-6-(2-pyridyl)-3 (2H)-pyridazinone]	6.52
O=C1C(c2cccnc2)C2COc3ccccc3C2=NN1c1ccccc1Br (stereo not shown) [Example 50, 2-(2-Bromophenyl)-4-(3-pyridyl)-2,3,4,4a-tetrahydro-5H-(1)benzopyrano[4,3-c]pyridazin-3-one]	7.00
N#Cc1ccccc1N1N=C(c2ccccc2O)CN(c2ccccc2)C1=O [Example 93, 2-(2-Cyanophenyl)-6-(2-hydroxyphenyl)-4-phenyl-4,5-dihydro-1,2,4-triazin-3 (2H)-one]	7.52
N#Cc1ccccc1-n1nc(-c2cnccn2)cc(-c2ccccc2)c1=O [Example 82, 2-(2-Cyanophenyl)-4-phenyl-6-(2-pyrazinyl)-3 (2H)-pyridazinone]	5.92
O=C1C(c2ccccc2)CC(c2ccccc2)=NN1c1ccccn1 (stereo not shown) [Example 21, 4,6-Diphenyl-2-(2-pyridyl)-4,5-dihydro-3 (2H)-pyridazinone]	6.30
COc1ccccc1N1N=C(c2ccccn2)CC(c2cccnc2)C1=O (stereo not shown) [Example 76, 2-(2-Methoxyphenyl)-4-(3-pyridyl)-6-(2-pyridyl)-4,5-dihydro-3 (2H)-pyridazinone]	5.21
N#Cc1ncccc1-n1nc(-c2ccccn2)cc(-c2ccccc2)c1=O [Example 80B, 2-(2-Cyanopyridin-3-yl)-4-phenyl-6-(2-pyridyl)-3 (2H)-pyridazinone]	6.70
N#Cc1ccccc1N1N=C(c2ccccn2)CN(c2cccc(N)c2)C1=O [Example 128, 2-(2-Cyanophenyl)-4-(3-aminophenyl)-6-(2-pyridyl)-4,5-dihydro-1,2,4-triazin-3 (2H)-one]	7.00
O=c1c(-c2ccccc2O)cc(-c2ccccn2)nn1-c1ccccc1 [Example 32, 4-(2-Hydroxyphenyl)-2-phenyl-6-(2-pyridyl)-3 (2H)-pyridazinone]	7.00
COc1cccc(-c2cc(-c3ccccn3)nn(-c3ccccc3Br)c2=O)c1 [Example 52, 2-(2-Bromophenyl)-4-(3-methoxyphenyl)-6-(2-pyridyl)-3 (2H)-pyridazinone]	6.70
N#Cc1ccccc1N1N=C(c2ccccn2)CN(c2ccccc2O)C1=O [Example 96, 2-(2-Cyanophenyl)-4-(2-hydroxyphenyl)-6-(2-pyridyl)-4,5-dihydro-1,2,4-triazin-3 (2H)-one]	6.22
N#Cc1ccccc1-n1nc(-c2ncccn2)cc(-c2ccccc2)c1=O [Example 70, 2-(2-Cyanophenyl)-4-phenyl-6-(2-pyrimidinyl)-3 (2H)-pyridazinone]	6.10
N#Cc1ccccc1-n1nc(-c2ccccc2)cc(C(=O)NCCN2CCOCC2)c1=O [Example 12, 2-(2-Cyanophenyl)-4-(4-morpholinoethylaminocarbonyl)-6-phenyl-3 (2H)-pyridazinone]	5.41
N#Cc1ccccc1-n1nc(-c2ccccn2)cc(-c2ccccc2O)c1=O [Example 42, 2-(2-Cyanophenyl)-4-(2-hydroxyphenyl)-6-(2-pyridyl)-3 (2H)-pyridazinone]	7.00
